Source: patent US20200078363A1, “POST-SURGICAL PAIN TREATMENT” (Heron Therapeutics, Inc., priority 2018, published 2020)

Test system: post-surgical incisional (post-operative or POP) pain
Assay: Post-operative (POP) pain porcine model, von Frey test
Assay type: in vivo
Details: Group 1: IV aprepitant 6 mg/kg once prior to surgery and daily for 5 days after surgery, no other medication; 4 pigs
From the text: Example 1 describes three studies conducted to evaluate the capacity to reduce post-surgical incisional (post-operative or POP) pain in a porcine model system. Using a post-operative (POP) pain porcine model system, where a 7 cm long skin and fascia incision was made in the left flank under general anesthesia to pigs, NK-1 receptor antagonist alone or in combination with pain medication (i.e., bupivacaine and meloxicam) were applied to the wound. The skin incision was then closed using sterile sutures. Various methods were evaluated for their capacity to reduce post-surgical incisional (post-operative or POP) pain in a porcine model system. […] All studies described below evaluated 4 pigs per group. Post-operative pain was assessed using the von Frey methodology. […] By alternating the filament thickness, the gram force required to achieve withdrawal reaction was determined and recorded. […] Several studies evaluated emulsion compositions containing aprepitant (diluted 1:7) with saline, administered by intravenous infusion dosed at 6 mg/kg as a slow bolus via an IV catheter in the ear. […] Analgesia was evaluated by response in the von Frey test, as described above. […] By following similar procedures described in Example 1, the analgesic effect of a lower dose of aprepitant (i.e., lower than 6.0 mg/kg) was evaluated. […]

C[C@@H](O[C@H]1OCCN(Cc2n[nH]c(=O)[nH]2)[C@H]1c1ccc(F)cc1)c1cc(C(F)(F)F)cc(C(F)(F)F)c1 [aprepitant]
analgesia, von Frey response (withdrawal force): little analgesic response
